According to patent publication US12239643B2, “Therapeutic agent for inflammatory diseases, autoimmune diseases, fibrotic diseases, and cancer diseases” (MEIJI SEIKA PHARMA CO., LTD., priority 2018, dated 2025):
Read-outs that look alike come from different tables or passages of the source.

Tests used:
[1] = tested on: oxazolone-induced auricle edema, BALB/c mice; assay: Hapten repeated application mouse chronic dermatitis model (oral, topical); type: in vivo; conditions: for Mouse Chronic Dermatitis Model (Test Example 8), Topical: edema suppression rate: 20 μL of 0.3 to 3% solution once or twice a day for 10 days
In short: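 Female BALB/c mice aged 7–8 weeks were sensitised abdominally with 3% oxazolone, then challenged on both ears with 1% oxazolone. From week 1, test compound was given for 10 days orally at 0.3–10 mg/kg twice daily in 0.5% MC, or topically at 0.3–3% once or twice daily. Ear-thickness change measured by dial gauge gave edema suppression versus vehicle control.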

TNFα [2] = assay: Cytokine suppression using whole human blood: TNFα (lipopolysaccharide stimulus); type: cell-based; conditions: Homo sapiens, human whole blood; read-out: TNFα Inhibitory Activity, Human Whole Blood (Test Example 3)
Procedure: The test compound dissolved in dimethyl sulfoxide was added to a 96-well plate, and RPMI-1640 medium and human peripheral blood containing sodium heparin were added, followed by culture at 37° C. under 5% CO2 for 1 hour. A medium containing only dimethyl sulfoxide instead of the test compound was added to the control well. To each well, lipopolysaccharide (final concentration 10 ng/mL) as a TNFα production stimulant, or phytohaemagglutinin (final concentration 20 μg/mL) as an IL-17A production stimulant, or CytoStim reagent ( 1/100 concentration) and CD28 antibody (final concentration 2.5 ng/mL) as an IL-4 production stimulant and an IL-5 production stimulant were added, followed by culture at 37° C. under 5% CO2. The culture was carried out for about 18 hours for the evaluation of the amount of TNFα, and for about 48 hours for the evaluation of the amounts of IL-17A, IL-4, and IL-5.
After collecting the culture supernatant after culturing, the amount of each cytokine was measured by the sandwich ELISA method. The cytokine production suppression rate (inhibition rate) by the test compound was calculated by the following formula from the cytokine production amount when the test compound was added, with the cytokine production amount for the control well as 100%. Inhibition Rate={1−(Cytokine Amount at Addition of Each Test Compound)/(Cytokine Amount for Control Well)}×100
In addition, the cytokine inhibitory activity (concentration for the inhibition rate of 50%) of the test compound was calculated from the inhibition curves based on the inhibition rates for various concentrations of the test compound.
The measurement results obtained by measuring the TNFα inhibitory activity and IL-5 inhibitory activity (50% inhibitory concentration) of the test compounds by the above method were evaluated in accordance with the following evaluated basis; A: less than 100 nM, B: 100 nM or more and less than 500 nM, and C: 500 nM or more. In addition, the measurement results obtained by measuring the IL-17A inhibitory activity and IL-4 inhibitory activity (50% inhibitory concentration) of the test compounds were evaluated in accordance with the following evaluated basis; A: less than 500 nM, B: 500 nM or more and less than 5000 nM, and C: 5000 nM or more.

PDE4 = assay: Evaluation of PDE4 inhibitory activity, scintillation proximity assay; type: biochemical
In short: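 SPA with [2,8-3H]-cAMP and diluted PDE4 enzyme preparation in 50 mM Tris-HCl pH 7.4, 8.3 mM MgCl2, 1.7 mM EGTA, 3 mg/mL BSA, 120 min at room temperature. Product captured on ZnSO4-containing YSi-SPA beads, scintillation counted; IC50 from inhibition curves vs DMSO control and no-enzyme blank.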

[3] = Hepatic metabolic stability (rat liver microsome method); type: in vitro ADME; conditions: rat liver microsomes 0.5 mg/mL, test substance 1 μM, NADPH 1 mM, 37° C., 30 minutes
In short: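 Rat liver microsomes (0.5 mg/mL final) with test compound (1 μM final) in 100 mM potassium phosphate pH 7.4, 37° C; reaction started with NADPH (1 mM final) after 5 min preincubation. Acetonitrile stop at 0 and 30 min, LC-MS quantitation; % remaining = 30 min/0 min ×100, graded A ≥75%, B 60–<75%, C 45–<60%, D <45%.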

[4] = tested on: oxazolone-induced auricle edema, BALB/c mice; assay: Mouse delayed type hypersensitivity (DTH) model (topical); type: in vivo; conditions: 20 μL applied to auricle, 24 hours after application
Procedure: Evaluation was carried out using female BALB/c mice (7 to 8 weeks of age). First, the hair of the abdomen of the mice was treated with a hair clipper, and then 150 μL of a 3% oxazolone acetone/ethanol solution was applied to the abdomen as a hapten. Five days later, 20 μL/ear of a 1% oxazolone.acetone/ethanol solution was applied to the outer surface of the auricle of both ears of the mouse to induce inflammation. Thirty minutes after the start of inflammation induction, 20 μL of the test compound dissolved in an acetone/ethanol solution was applied to the auricle. A 1% oxazolone was not applied to the blank. The control was one in which 1% oxazolone was applied and only an acetone/ethanol solution was applied without using the test compound. The auricle thickness 24 hours after application of the test compound was measured with a dial thickness gauge, and the value obtained by subtracting the blank value was used to calculate the edema suppression rate by the following formula. Edema Suppression Rate (%)={1−(Value at Addition of Each Test Compound−Blank Value)/(Control Value−Blank Value)}×100 The measurement results obtained by measuring the edema suppression rate at the time of topical administration of each test compound by the above method were evaluated in accordance with the following evaluated basis; A: 60% or more, B: 40% or more and less than 60%, and C: less than 40%.

TNFα [5] = assay: Cytokine suppression using human peripheral blood mononuclear cells: TNFα; type: cell-based; conditions: human PBMC, lipopolysaccharide 1 ng/mL; read-out: TNFα Inhibitory Activity, Human PBMC (Test Example 4)
Procedure: First, peripheral blood mononuclear cells (PBMC) were separated from whole blood by specific gravity centrifugation. Then, the isolated peripheral blood mononuclear cells were added to RPMI-1640 medium (containing 10% fetal bovine serum, penicillin, streptomycin, L-glutamine, and 2-mercaptoethanol), and cultured in a 96-well plate at 37° C. under 5% CO2 for 0 to 1 hour. The test compound dissolved in dimethyl sulfoxide was added to each well, followed by further culture at 37° C. under 5% CO2 for 1 hour. A medium containing only dimethyl sulfoxide instead of the test compound was added to the control well. To each well, lipopolysaccharide (final concentration 1 ng/mL) as a TNFα production stimulant and an IL-23 production stimulant, or concanavalin A (final concentration 20 μg/mL) as an IL-17A production stimulant was added, followed by culture at 37° C. under 5% CO2. In addition, as IL-4 production stimulus, IL-5 production stimulus, and IL-13 production stimulus, PBMC was seeded on a 96-well plate previously coated with a CD3 antibody (final concentration 3 μg/mL), and a CD28 antibody (final concentration 5 ng/mL) was added. The culture was carried out for about 18 hours for the evaluation of the amounts of TNFα and IL-23, and about 48 hours for the evaluation of the amounts of IL-17A, IL-4, IL-5, and IL-13. After collecting the culture supernatant after culturing, the amount of each cytokine was measured by the sandwich ELISA method in the same manner as in Test Example 3, and the cytokine production suppression rate (inhibition rate) and the cytokine inhibitory activity (concentration for the inhibition rate of 50%) of each test compound were calculated.
The measurement results obtained by measuring the TNFα inhibitory activity and IL-5 inhibitory activity (50% inhibitory concentration) of the test compounds by the above method were evaluated in accordance with the following evaluated basis; A: less than 10 nM, B: 10 nM or more and less than 100 nM, and C: 100 nM or more. In addition, the measurement results obtained by measuring the IL-17A inhibitory activity, IL-23 inhibitory activity, IL-4 inhibitory activity, and IL-13 inhibitory activity (50% inhibitory concentration) of the test compounds were evaluated in accordance with the following evaluated basis; A: less than 500 nM, B: 500 nM or more and less than 5000 nM, and C: 5000 nM or more.

[6] = tested on: substance P-induced pruritus behavior, ICR mice; assay: Mouse pruritus model; type: in vivo; conditions: oral, substance P intradermally 2 hours after administration
Procedure: Evaluation was carried out using male ICR mice (5 to 7 weeks of age). A micro magnet was embedded under the skin of both hind limbs of the mice in advance, and the hair on the back of the mouse neck was shaved. On the day of the test, the test compound was dissolved or suspended in 0.5% w/v methylcellulose (0.5% MC) and orally administered. Two hours after administration of the test compound, 50 μL of 300 nM substance P dissolved in saline was intradermally administered to the back of the mouse neck. The blank was a non-pruritus-induced group orally administered with 0.5% MC instead of the test compound and intradermally administered with saline instead of substance P, and the pruritus induction control was a group orally administered with 0.5% MC instead of the test compound. The pruritus measurement system for small animals, MicroAct II, automatically measured pruritus behavior for 30 minutes immediately after intradermal administration.

[7] = finer grading of compounds rated A in Evaluation 1, read-out: PDE4 Inhibitory Activity (Evaluation 2)

Row | SMILES | Mouse Chronic Dermatitis Model (Test Example 8), Oral: edema suppression rate ([1]; oral, 0.3 to 10 mg/kg twice a day for 10 days) | Mouse Chronic Dermatitis Model (Test Example 8), Topical: edema suppression rate [1] | IC50 (TNFα [2]) | IC50 (PDE4; [7]) | IC50 (PDE4; scintillation proximity assay, read-out: PDE4 Inhibitory Activity (Evaluation 1; concentration for the inhibition rate of 50%)) | PDE4 inhibitory activity (PDE4; summary in words of Tables 57 to 69) | Residual ratio (% remaining for 30-minute reaction) [3] | Mouse DTH Model (Test Example 11), Topical: edema suppression rate [4] | IC50 (TNFα [5]) | scratching behavior (pruritus behavior for 30 minutes) [6]
1 | CC(O)C(F)(F)Oc1ccc(-c2nccs2)c2oc(N3CC4CC(C3)N4)nc12 (single isomer, unassigned) [Example 251, 1-((2-(3,6-Diazabicyclo[3.1.1]heptan-3-yl)-7-(thiazol-2-yl)benzo[d]oxazol-4-yl)oxy)-1,1-difluoropropan-2-ol] | B (B: 40% or more and less than 70%) | A (A: 100% or more) | < 0.1 µM | ≤ 0.001 µM | < 0.1 µM | particularly excellent | A (A: a % remaining rate of 75% or more) | B (B: 40% or more and less than 60%) |  | 
2 | N#Cc1ccc(Oc2ccc3c(c2)COB3O)cc1 [crisaborole, reference compound] |  | C (C: less than 70%) |  | > 0.1 µM |  |  |  | C (C: less than 40%) | > 0.1 µM | 
3 | CC(C)(C(=O)O)c1ccc(C(O)CCCN2CCC(C(O)(c3ccccc3)c3ccccc3)CC2)cc1 (stereo not shown) [fexofenadine, reference compound] |  |  |  |  |  |  |  |  |  | did not suppress scratching behavior
